Data from US9657147B2, “Method for preparing glycolide polyester by ring opening polymerization” (TEKNOLOGIAN TUTKIMUSKESKUS VTT OY, priority 2011, dated 2017).

Test: Test of solubility of the starting materials and homopolyglycolide in organic solvents
From the text: A solvent which could be used in the ring opening polymerization should meet criteria: i) the solvent should be good enough to dissolve all starting materials including monomer (glycolide), co-monomer, initiator, catalyst and dispersion stabilizer, and ii) it should not dissolve resulting polymer (homopolyglycolide and co-polymers).

With `O=C1COC(=O)CO1` [Glycolide] the “solution concentration permitted in acetonitrile” value (solvent acetonitrile) was 50 wt-% and the “solubility in Toluene” value (solvent toluene) was “bad”.
